Measured values: US7087736B1, “Tyrosine DNA phosphodiesterases (TDP) and related polypeptides nucleic acids vectors TDP producing host cells antibodies and methods of use” (priority 1999, dated 2006)

Test system: Saccharomyces cervisiae strains (parental, enz mutant, HNY243, HNY244)
Assay: Sensitivity of yeast strains to killing by drug (colony survival after 24 hrs)
Format: cell-based
Description: The strains were compared for sensitivity to killing by camptothecin. Despite the dramatic difference in TDP activity, the parental line and the backcrossed enz mutant were insensitive to camptothecin. When combined with a disruption of the RAD9 gene, the camptothecin sensitivity of the low activity mutant (strain HNY244) was increased by a factor of 12 relative to the rad9 derivative of the parental strain HNY243. The same difference was observed after the mutant had undergone two additional rounds of backcrossing. In order to confirm that camptothecin-induced damage was due to topoisomerase trapping, the TOP1 gene of HNY244 was disrupted and survival increased nearly 1,000-fold.
Each pool was separately grown and treated with camptothecin for 24 hours. Cells were grown to near-saturation in medium with glycerol in place of dextrose (YPG) to ensure a starting population with few or no petite derivatives in accordance with standard methods. These cells were resuspended at OD650=0.4 in YPD (bacto-yeast extract, peptone and dextrose standard yeast growth medium), grown for 2 hrs and diluted again in YPD to OD650=0.4. Drug was then added and samples were withdrawn immediately and after 24 hrs at 30° C. After dilution and plating on YPD, surviving colonies were counted after 3-4 days of growth. When plasmid-containing strains were assessed for camptothecin sensitivity, YPD was replaced throughout by uracil-deficient minimal medium to ensure plasmid retention. The survivors were amplified by growth in YPD.

| Compound | camptothecin sensitivity of YBR223c disruption strain (HNY243 with YBR223c ORF disrupted) | camptothecin resistance after transformation (HNY244 transformed with pNS2 or pAXb) | sensitivity to killing by camptothecin (backcrossed enz mutant (low TDP activity)) | increase of camptothecin sensitivity relative to rad9 derivative of parental strain HNY243 (low activity mutant with RAD9 disruption (strain HNY244)) [factor] | sensitivity to killing by camptothecin (parental line (normal TDP activity)) | increase of survival after disruption of TOP1 gene (strain HNY244 with TOP1 disrupted, camptothecin-induced damage) | sensitization of the mutant line to killing (low TDP activity mutant line) |
| --- | --- | --- | --- | --- | --- | --- | --- |
| CC[C@@]1(O)C(=O)OCc2c1cc1n(c2=O)Cc2cc3ccccc3nc2-1 [camptothecin] | very similar to that of HNY244 | improved camptothecin resistance | insensitive | 12 | insensitive | ~1,000 fold |  |
| COS(C)(=O)=O [methyl methane sulfonate] |  |  |  |  |  |  | not sensitized |
